According to US20130197043A1, “USE OF THE FETAL REPROGRAMMING OF A PPAR AGONIST” (SNU R&DB FOUNDATION, priority 2010, published 2013):

Tests used:
[1] = Pharmacokinetic experiment: passage of PPAR δ agonist through the placenta; assay type: in vivo, mice
Experimental: Pharmacokinetic experiment was conducted in order to confirm whether or not a PPAR δ agonist used in the present study, CMDD1111, passes through the placenta. CMDD 1111 was administered to 16-day pregnant mice at a concentration of 10 mg/kg, and then concentrations of the compound distributed in the bloods of mother animals and fetuses were analyzed for 24 hours. […] In the case of the fetuses, the blood concentration thereof tended to increase with the time, unlike the mother animals, and the maximum blood concentration thereof was 8.9 μM.

[2] = tested on: gene expression in muscle; assay: Gene expression analysis using real-time PCR in fetal-reprogrammed mice; assay type: in vivo
Experimental: A gene expression analysis experiment using the real-time PCR was conducted to further verify Miroarray analysis results. As for mouse group subjected to fetal reprogramming by administration of PPAR δ agonist (CMDD1111) during a muscular development period, there were increases in expression of core regulators for fatty acid oxidation and thermogenesis, such as carnitine palmitoyl transferase 1a (CPT-1a: 1.5 fold), uncoupling protein 3 (UCP3: 4.2 fold), acyl Co-A synthetase (ACSL: 1.4 fold), acyl Co-A dehydrogenase (ACAD10: 2.0 fold), and NDUFA12 (1.3 fold). In addition, there was a remarkable increase in expression of Adiponectin (ADIPOQ: 2.5 fold), which are commonly expressed in the slow muscle fiber and has been known to increase fatty acid oxidation to improve diabetes (FIG. 9).

primary cultured myotube = assay: Primary cell culture and real-time PCR gene expression analysis; assay type: cell-based, mouse; conditions: 300 nM, real-time PCR
Experimental: However, it has not been reported that the PPARs response element (PPRE) is present at promoters of these three genes. Therefore, the present inventors resected the muscle of the mouse with the removal of PPAR δ gene and conducted primary culture, in order to verify whether or not the increases in expressions of the above three genes are PPAR δ-dependent. After hind legs of a five-day-old fetus was resected, primary culture was conducted by the same method as developed by Rando (Rando et al, J. Cell. Biol., 1994, 125, 1275-1287). Myoblast, after being cultured, was transferred to a 6-well plate, and then differentiated into myotube while being treated with 300 nM of PPAR δ agonist (CMDD1111). The differentiated myotube was further treated with 300 nM of PPAR δ agonist (CMDD1111) for 2 days, and then total RNA was extracted by using a TRIzol reagent (Gibco). The extracted RNA was subjected to reverse transcription, to synthesize cDNA, which was then used as a template for real-time PCR analysis.

[3] = tested on: cytosolic calcium in differentiated muscle cells; assay: Analysis of cytosolic calcium (Flou4, confocal microscope); assay type: cell-based, mouse; conditions: 300 nM, 10 mM caffeine, calcium-free Kreb solution
Experimental: An experiment using a calcium-specific dye reagent, Flou4(Molecular probe), was conducted in order to confirm the effect on concentration of cytosolic calcium by the changes of RYR, SERCA, and PLN. The experiment method is as follows. The isolated muscle cells were grown on a culture plate with an attached glass slide through primary culture, and then differentiated into myotube while being treated with 300 nM of PPAR δ agonist (CMDD1111). Flou4 (final concentration: 5 μM) dye reagent was put into the differentiated muscle cells, which were then cultured for 30 minutes. The calcium-free Kreb solution was used as a culture medium to measure the change of cytosolic calcium, and treatment with 10 mM of caffeine was conducted to activate calcium channels. Intracellular calcium ion change was measured by using a confocal microscope. As the measurement result, the retention time of cytosolic calcium was increased by 43% (592±60 versus 847±77 sec) in the muscle cell to which PPAR δ agonist (CMDD1111) was added (FIG. 13). The reason was that expressions of RYR regulating calcium efflux and PLN suppressing calcium influx in the sarcoplasmic membrane were increased by PPAR δ. […]

[4] = tested on: mice subjected to fetal reprogramming; assay: Glucose tolerance test (GTT) of fetal-reprogrammed mice after high-fat feedstuff; assay type: in vivo; conditions: GTT after 17 weeks high-fat feedstuff
Experimental: The present researchers conducted the glucose tolerance test (GTT) after the mice were fed with high-fat feedstuff for 17 weeks to induce diabetes. The experiment was conducted following the method proposed by Kelly, and challenged with over-night fasting in order to confirm the role thereof in the muscle. Glucose ([…]) was administered by using intraperitoneal injection, and then the blood glucose level change was measured for 2 hours. As a result, the fasting blood glucose level was lower, the maximum blood glucose concentration was lower, and the glucose clearance time was shorter in the mice of the administration group as compared with the mice of the control group (FIG. 19). At the same time, the insulin tolerance test was conducted (FIG. 20). To sum the above results up, it may be seen that animals subjected to fetal reprogramming by PPAR δ activation enhanced endurance due to an increase in slow muscle fibers and prevented and suppressed the occurrence of obesity and diabetes due to high-fat diet.

[5] = fetal-reprogrammed mouse muscle

With `Cc1cc(SC(Cc2ccccc2)c2sc(-c3ccc(C(F)(F)F)cc3)nc2C)ccc1OCC(=O)O` (stereo not drawn) [CMDD1111] the “passage through the placenta” value ([1]; 16-day pregnant mice, 10 mg/kg) was “passed through the placenta”, the half-life ([1]; female, mouse, blood, oral, mother animals, 16-day pregnant mice, 10 mg/kg, read-out: half-time (t1/2) (converted)) was 9 h and the Cmax ([1]; female, mouse, blood, oral, mother animals, 16-day pregnant mice, 10 mg/kg, read-out: maximum blood concentration (Cmax)) was 38 µM. The Tmax ([1]; female, mouse, blood, oral, mother animals, 16-day pregnant mice, 10 mg/kg, read-out: time for reaching the maximum blood concentration (Tmax)) was 1 h, the maximum blood concentration ([1]; fetuses, mother given 10 mg/kg, 24 hours) was 8.9 µM and the “expression of Adiponectin (ADIPOQ)” value [2, 5] was 2.5 fold. The “expression of CaMKII B” value [2, 5] was 4.5 fold, the “expression of CaMKII D” value [2, 5] was 3.2 fold and the “expression of HDAC4, decreased by” value [2, 5] was 0.6 fold. For the same compound, the “expression of NDUFA12” value [2, 5] was 1.3 fold, the “expression of PGC-1α” value [2, 5] was 1.6 fold and the “expression of acyl Co-A dehydrogenase (ACAD10)” value [2, 5] was 2.0 fold. For the same compound, the “expression of acyl Co-A synthetase (ACSL)” value [2, 5] was 1.4 fold, the “expression of carnitine palmitoyl transferase 1a (CPT-1a)” value [2, 5] was 1.5 fold and the “expression of uncoupling protein 3 (UCP3)” value [2, 5] was 4.2 fold. The “expression of ATP2A2” value ([2]; versus control group) was 2.2 fold, the “expression of MYH6” value ([2]; versus control group) was 6.8 fold and the “expression of My17” value ([2]; versus control group) was 4.8 fold. The “expression of RYR2” value ([2]; versus control group) was 2.2 fold, the “expression of RYR3” value ([2]; versus control group) was 3.6 fold and the “expression of TNNI3” value ([2]; versus control group) was 5.8 fold. The expression of phospholamban ([2]; versus control group) was 3.2 fold, the “expression of ATP2A2” value (primary cultured myotube) was 4.3 fold and the “expression of CPT-1” value (primary cultured myotube) was 1.5 fold. The “expression of PDK4” value (primary cultured myotube) was 2.2 fold, the “expression of PLN” value (primary cultured myotube) was 1.7 fold and the “expression of RYR” value (primary cultured myotube) was 2.2 fold. The “expression of TNNI3” value (primary cultured myotube) was 1.7 fold, the “increase of retention time of cytosolic calcium” value [3] was 43% and the “retention time of cytosolic calcium” value [3] was 847 ± 77 s. The “fasting blood glucose level versus control” value [4] was “lower”, the “glucose clearance time versus control” value [4] was “shorter” and the “maximum blood glucose concentration versus control” value [4] was “lower”.
